Measurements published in PubChem BioAssay AID1963871 (Molecular Pharmacology Branch, DTP, NCI, 2024).

Tested on: KRAS-mutant PDC multicell tumor spheroid viability
Test: Anticancer human tumor 521955-158-R2-J5-PDC patient-derived pancreatic carcinoma cell line growth inhibition [KRAS2]
Settings: for viability, T/C: stronger effect = lower value
In short: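 Combination screen of spheroid viability in tumor-cell co-cultures with endothelial (HUVEC) and mesenchymal stem cell stroma. Each agent was tested in half-log dilutions, topping at clinical Cmax or at 10 microM without a known Cmax.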

[1] = curve of first compound, second compound 0.1 µM
[2] = curve of first compound, second compound 0.316 µM
[3] = curve of first compound, second compound 1 µM
[4] = curve of first compound, second compound 3.16 µM
[5] = curve of first compound, second compound 10 µM
[6] = second compound 0.1 µM, first compound 0.0316 µM
[7] = second compound 0.1 µM, first compound 0.1 µM
[8] = second compound 0.316 µM, first compound 0.0316 µM
[9] = second compound 0.316 µM, first compound 0.1 µM
[10] = second compound 1 µM, first compound 0.0316 µM
[11] = second compound 1 µM, first compound 0.1 µM
[12] = second compound 3.16 µM, first compound 0.0316 µM
[13] = second compound 3.16 µM, first compound 0.1 µM
[14] = second compound 10 µM, first compound 0.0316 µM
[15] = second compound 10 µM, first compound 0.1 µM
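Note: viability read after seven days of drug exposure.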

SMILES: COC(=O)c1ccc2c(C(=Nc3ccc(N(C)C(=O)CN4CCN(C)CC4)cc3)c3ccccc3)c(O)[nH]c2c1 + C=CC(=O)N1CCN(c2nc(=O)n(-c3c(C)ccnc3C(C)C)c3nc(-c4c(O)cccc4F)c(F)cc23)C(C)C1
- IC50 [1]: 1720 nM
- IC50 [2]: 1540 nM
- IC50 [3]: 727 nM
- IC50 [4]: 1010 nM
- IC50 [5]: 1260 nM
- viability, T/C [6]: 89.6%
- viability, T/C [7]: 88.4%
- viability, T/C (second compound 0.1 µM, first compound 0.316 µM): 87%
- viability, T/C (second compound 0.1 µM, first compound 1 µM): 75.9%
- viability, T/C (second compound 0.1 µM, first compound 3.16 µM): 21%
- viability, T/C (second compound 0.1 µM, first compound 10 µM): 0.16%
- viability, T/C [8]: 102%
- viability, T/C [9]: 88.1%
- viability, T/C (second compound 0.316 µM, first compound 0.316 µM): 89.9%
- viability, T/C (second compound 0.316 µM, first compound 1 µM): 74.2%
- viability, T/C (second compound 0.316 µM, first compound 3.16 µM): 10.3%
- viability, T/C (second compound 0.316 µM, first compound 10 µM): 0.14%
- viability, T/C [10]: 113%
- viability, T/C [11]: 96.4%
- viability, T/C (second compound 1 µM, first compound 0.316 µM): 77%
- viability, T/C (second compound 1 µM, first compound 1 µM): 43.5%
- viability, T/C (second compound 1 µM, first compound 3.16 µM): 4.15%
- viability, T/C (second compound 1 µM, first compound 10 µM): 0.16%
- viability, T/C [12]: 86%
- viability, T/C [13]: 82.1%
- viability, T/C (second compound 3.16 µM, first compound 0.316 µM): 67.9%
- viability, T/C (second compound 3.16 µM, first compound 1 µM): 53.4%
- viability, T/C (second compound 3.16 µM, first compound 3.16 µM): 2.33%
- viability, T/C (second compound 3.16 µM, first compound 10 µM): 0.14%
- viability, T/C [14]: 66.5%
- viability, T/C [15]: 71.5%
- viability, T/C (second compound 10 µM, first compound 0.316 µM): 56.6%
- viability, T/C (second compound 10 µM, first compound 1 µM): 61.2%
- viability, T/C (second compound 10 µM, first compound 3.16 µM): 4.87%
- viability, T/C (second compound 10 µM, first compound 10 µM): 0.22%

SMILES: CC(C)n1nc(-c2ccc3oc(N)nc3c2)c2c(N)ncnc21 + CNCc1ccccc1-c1csc(C(C)Nc2nc(C)nc3cc(OC)c(OC)cc23)c1
- IC50 [1]: 7.42 nM
- IC50 [2]: 9.11 nM
- IC50 [3]: 6.62 nM
- IC50 [4]: < 0.316 nM
- IC50 [5]: < 0.316 nM
- viability, T/C (second compound 0.1 µM, first compound 0.000316 µM): 91.2%
- viability, T/C (second compound 0.1 µM, first compound 0.001 µM): 85.3%
- viability, T/C (second compound 0.1 µM, first compound 0.00316 µM): 61.2%
- viability, T/C (second compound 0.1 µM, first compound 0.01 µM): 45.8%
- viability, T/C [6]: 34.1%
- viability, T/C [7]: 25.2%
- viability, T/C (second compound 0.316 µM, first compound 0.000316 µM): 84%
- viability, T/C (second compound 0.316 µM, first compound 0.001 µM): 83.2%
- viability, T/C (second compound 0.316 µM, first compound 0.00316 µM): 67.1%
- viability, T/C (second compound 0.316 µM, first compound 0.01 µM): 49.4%
- viability, T/C [8]: 30.7%
- viability, T/C [9]: 23.8%
- viability, T/C (second compound 1 µM, first compound 0.000316 µM): 92.5%
- viability, T/C (second compound 1 µM, first compound 0.001 µM): 82.7%
- viability, T/C (second compound 1 µM, first compound 0.00316 µM): 62.2%
- viability, T/C (second compound 1 µM, first compound 0.01 µM): 42.1%
- viability, T/C [10]: 30.9%
- viability, T/C [11]: 21.6%
- viability, T/C (second compound 3.16 µM, first compound 0.000316 µM): 32.1%
- viability, T/C (second compound 3.16 µM, first compound 0.001 µM): 43.5%
- viability, T/C (second compound 3.16 µM, first compound 0.00316 µM): 0.4%
- viability, T/C (second compound 3.16 µM, first compound 0.01 µM): 0.49%
- viability, T/C [12]: 1.25%
- viability, T/C [13]: 0.88%
- viability, T/C (second compound 10 µM, first compound 0.000316 µM): 0.38%
- viability, T/C (second compound 10 µM, first compound 0.001 µM): 0.15%
- viability, T/C (second compound 10 µM, first compound 0.00316 µM): 0.47%
- viability, T/C (second compound 10 µM, first compound 0.01 µM): 0.13%
- viability, T/C [14]: 0.15%
- viability, T/C [15]: 0.2%

SMILES: Cn1nccc1Nc1nccc(-c2cc3c(s2)C(C)(C)N(CCN2CCOCC2)C3=O)n1
- viability, T/C (compound 0.0316 µM): 91.2% [middle of 5 runs]
- viability, T/C (compound 0.1 µM): 86.3% [middle of 5 runs]
- viability, T/C (compound 0.316 µM): 60.6% [middle of 5 runs]
- viability, T/C (compound 1 µM): 51% [middle of 5 runs]
- viability, T/C (compound 3.16 µM): 32.7% [middle of 5 runs]
- viability, T/C (compound 10 µM): 22.6% [middle of 5 runs]
- IC50 (curve of compound): 902 nM [middle of 5 runs]

SMILES: CC(=O)OC12COC1CC(O)C1(C)C(=O)C(O)C3=C(C)C(OC(=O)C(O)C(NC(=O)OC(C)(C)C)c4ccccc4)CC(O)(C(OC(=O)c4ccccc4)C21)C3(C)C (centres undefined)
- viability, T/C (compound 0.01 µM): 22.3% [middle of 5 runs]
- viability, T/C (compound 0.0316 µM): 15.3% [middle of 5 runs]
- viability, T/C (compound 0.1 µM): 14.2% [middle of 5 runs]
- viability, T/C (compound 0.316 µM): 15.2% [middle of 5 runs]
- viability, T/C (compound 1 µM): 18.1% [middle of 5 runs]
- viability, T/C (compound 3.16 µM): 21.9% [middle of 5 runs]
- IC50 (curve of compound): < 10 nM
